Measurements published in ChEMBL document CHEMBL4118098, “Discovery of DS28120313 as a potent orally active hepcidin production inhibitor: Design and optimization of novel 4,6-disubstituted indazole derivatives” (Bioorg Med Chem Lett, 2017).
Blank lines part the entries; values can stand above or below the compound they belong to.

Key:
[1] = tested on: Epidermal growth factor receptor (Homo sapiens), P00533 [T790M]; test: Inhibition of EGFR T790M mutant (unknown origin) at 0.19 uM relative to control
Chain of Epidermal growth factor receptor (Homo sapiens), P00533 [T790M] (P00533 whole entry T790M): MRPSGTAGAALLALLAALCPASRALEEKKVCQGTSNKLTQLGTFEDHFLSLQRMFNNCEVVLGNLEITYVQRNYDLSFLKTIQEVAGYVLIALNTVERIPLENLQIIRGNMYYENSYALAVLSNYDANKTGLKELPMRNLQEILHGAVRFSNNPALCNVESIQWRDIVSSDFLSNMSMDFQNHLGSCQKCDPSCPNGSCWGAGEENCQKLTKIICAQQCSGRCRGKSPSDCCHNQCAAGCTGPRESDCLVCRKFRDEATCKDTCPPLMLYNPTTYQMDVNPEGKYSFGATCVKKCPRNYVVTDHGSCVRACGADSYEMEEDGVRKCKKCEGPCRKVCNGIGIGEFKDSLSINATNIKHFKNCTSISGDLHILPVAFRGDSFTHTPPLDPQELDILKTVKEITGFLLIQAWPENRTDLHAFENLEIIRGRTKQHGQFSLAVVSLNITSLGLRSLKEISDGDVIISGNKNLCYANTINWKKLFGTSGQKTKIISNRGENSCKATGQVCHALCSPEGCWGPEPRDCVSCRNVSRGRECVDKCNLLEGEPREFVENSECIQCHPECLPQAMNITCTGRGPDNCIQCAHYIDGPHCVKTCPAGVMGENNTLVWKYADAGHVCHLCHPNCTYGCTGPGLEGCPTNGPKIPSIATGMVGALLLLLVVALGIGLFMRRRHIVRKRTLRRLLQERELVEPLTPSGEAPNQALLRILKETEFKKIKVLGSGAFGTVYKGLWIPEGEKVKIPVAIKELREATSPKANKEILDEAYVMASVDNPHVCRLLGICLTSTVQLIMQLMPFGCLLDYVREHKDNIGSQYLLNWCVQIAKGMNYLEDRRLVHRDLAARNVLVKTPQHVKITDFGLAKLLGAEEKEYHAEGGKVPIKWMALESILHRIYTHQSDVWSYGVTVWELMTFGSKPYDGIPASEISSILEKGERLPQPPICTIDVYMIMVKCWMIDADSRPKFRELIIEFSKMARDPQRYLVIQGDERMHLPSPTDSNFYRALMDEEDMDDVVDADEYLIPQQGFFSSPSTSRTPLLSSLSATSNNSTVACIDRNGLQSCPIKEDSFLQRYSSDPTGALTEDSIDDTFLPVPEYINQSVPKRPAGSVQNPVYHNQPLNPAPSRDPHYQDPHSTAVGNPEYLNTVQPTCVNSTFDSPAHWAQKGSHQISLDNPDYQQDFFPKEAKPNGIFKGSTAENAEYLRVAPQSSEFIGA

[2] = molecular target: Protein kinase C gamma type (Homo sapiens) (UniProt P05129); test: Inhibition of PKC-gamma (unknown origin) at 0.19 uM relative to control
[3] = molecular target: NUAK family SNF1-like kinase 1 (Homo sapiens) (UniProt O60285); test: Inhibition of NuaK1 (unknown origin) at 0.19 uM relative to control
[4] = molecular target: T1, cGMP-dependent protein kinase 1 (Homo sapiens) (UniProt Q13976); test: Inhibition of PKG1-beta (unknown origin) at 0.19 uM relative to control
T1 sequence (whole entry): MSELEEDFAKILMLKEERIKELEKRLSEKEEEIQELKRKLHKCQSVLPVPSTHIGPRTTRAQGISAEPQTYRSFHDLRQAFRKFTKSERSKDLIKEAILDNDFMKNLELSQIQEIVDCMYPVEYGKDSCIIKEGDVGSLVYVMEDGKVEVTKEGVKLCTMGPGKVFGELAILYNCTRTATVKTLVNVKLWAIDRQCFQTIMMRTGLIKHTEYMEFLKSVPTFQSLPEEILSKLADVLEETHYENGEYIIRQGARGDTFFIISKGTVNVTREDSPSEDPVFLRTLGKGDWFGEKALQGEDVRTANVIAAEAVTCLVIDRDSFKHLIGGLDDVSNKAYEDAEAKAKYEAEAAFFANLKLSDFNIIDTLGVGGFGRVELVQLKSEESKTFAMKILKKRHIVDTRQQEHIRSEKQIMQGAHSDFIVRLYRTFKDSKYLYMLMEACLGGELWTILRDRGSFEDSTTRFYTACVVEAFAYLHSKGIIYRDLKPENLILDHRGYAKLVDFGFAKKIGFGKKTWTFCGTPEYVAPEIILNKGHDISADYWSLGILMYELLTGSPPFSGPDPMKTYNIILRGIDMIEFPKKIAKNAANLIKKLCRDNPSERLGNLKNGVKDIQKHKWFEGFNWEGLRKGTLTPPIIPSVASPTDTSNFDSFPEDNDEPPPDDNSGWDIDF

[5] = molecular target: Proto-oncogene tyrosine-protein kinase Src (Homo sapiens) (UniProt P12931); test: Inhibition of SRC (unknown origin) at 0.19 uM relative to control
[6] = molecular target: Protein-tyrosine kinase 2-beta (Homo sapiens) (UniProt Q14289); test: Inhibition of PYK2 (unknown origin) at 0.19 uM relative to control
Chain of Protein-tyrosine kinase 2-beta (Homo sapiens) (Q14289 whole entry, looked up): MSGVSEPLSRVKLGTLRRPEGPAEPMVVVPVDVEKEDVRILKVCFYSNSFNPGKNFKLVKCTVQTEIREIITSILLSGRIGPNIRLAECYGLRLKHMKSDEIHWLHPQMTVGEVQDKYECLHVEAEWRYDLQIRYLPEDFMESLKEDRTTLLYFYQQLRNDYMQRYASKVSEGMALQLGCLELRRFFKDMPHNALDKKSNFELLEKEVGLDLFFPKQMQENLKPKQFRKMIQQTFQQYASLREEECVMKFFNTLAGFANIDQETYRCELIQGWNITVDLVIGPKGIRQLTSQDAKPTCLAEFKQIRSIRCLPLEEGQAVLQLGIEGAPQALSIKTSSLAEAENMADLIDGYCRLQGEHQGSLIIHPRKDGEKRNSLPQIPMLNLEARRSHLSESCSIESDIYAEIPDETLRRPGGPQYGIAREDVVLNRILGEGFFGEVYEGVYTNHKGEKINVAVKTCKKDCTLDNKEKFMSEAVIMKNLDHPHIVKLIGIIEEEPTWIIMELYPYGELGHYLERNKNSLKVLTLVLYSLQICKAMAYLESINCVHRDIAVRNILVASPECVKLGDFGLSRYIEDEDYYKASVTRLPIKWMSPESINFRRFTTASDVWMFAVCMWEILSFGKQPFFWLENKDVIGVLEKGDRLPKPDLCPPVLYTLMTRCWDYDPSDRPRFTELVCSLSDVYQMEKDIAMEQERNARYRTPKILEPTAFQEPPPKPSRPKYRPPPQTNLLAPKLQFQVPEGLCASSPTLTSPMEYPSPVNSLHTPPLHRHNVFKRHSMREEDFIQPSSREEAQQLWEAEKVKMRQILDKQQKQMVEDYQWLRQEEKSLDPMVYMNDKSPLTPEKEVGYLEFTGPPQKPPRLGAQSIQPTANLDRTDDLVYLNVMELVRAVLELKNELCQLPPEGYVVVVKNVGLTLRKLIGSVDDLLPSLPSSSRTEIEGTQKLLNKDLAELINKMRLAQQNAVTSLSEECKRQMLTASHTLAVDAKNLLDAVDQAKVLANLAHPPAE

[7] = molecular target: T2, Serine/threonine-protein kinase D1 (Homo sapiens) (UniProt Q15139); test: Inhibition of PKD1 (unknown origin) at 0.19 uM relative to control
T2 sequence (whole entry): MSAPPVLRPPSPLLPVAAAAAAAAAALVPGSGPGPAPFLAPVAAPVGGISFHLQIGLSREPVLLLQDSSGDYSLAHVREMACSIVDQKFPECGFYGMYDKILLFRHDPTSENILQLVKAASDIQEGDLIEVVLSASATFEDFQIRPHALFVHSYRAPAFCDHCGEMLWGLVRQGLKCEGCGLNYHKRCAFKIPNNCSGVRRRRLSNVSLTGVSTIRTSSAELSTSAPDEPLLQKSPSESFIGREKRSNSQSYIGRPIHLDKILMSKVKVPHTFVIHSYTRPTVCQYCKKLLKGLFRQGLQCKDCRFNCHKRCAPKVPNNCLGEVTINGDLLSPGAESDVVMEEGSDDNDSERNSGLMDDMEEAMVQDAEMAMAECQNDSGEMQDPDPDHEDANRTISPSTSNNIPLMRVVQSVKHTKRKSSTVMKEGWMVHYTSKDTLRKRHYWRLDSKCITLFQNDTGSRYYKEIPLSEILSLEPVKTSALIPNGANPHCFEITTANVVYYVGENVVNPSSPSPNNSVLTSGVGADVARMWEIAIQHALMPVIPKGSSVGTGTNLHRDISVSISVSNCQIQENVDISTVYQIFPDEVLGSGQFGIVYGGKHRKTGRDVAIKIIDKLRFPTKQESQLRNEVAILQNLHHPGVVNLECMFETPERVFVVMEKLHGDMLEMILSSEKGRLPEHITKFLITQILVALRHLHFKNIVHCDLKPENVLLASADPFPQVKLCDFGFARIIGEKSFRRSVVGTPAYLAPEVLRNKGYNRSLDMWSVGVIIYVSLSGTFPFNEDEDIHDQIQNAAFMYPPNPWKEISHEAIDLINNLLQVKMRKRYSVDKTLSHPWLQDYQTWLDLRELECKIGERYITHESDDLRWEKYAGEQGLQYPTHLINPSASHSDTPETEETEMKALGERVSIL

[8] = molecular target: Cyclin-dependent kinase 1/cyclin B1 (Homo sapiens) (UniProt P06493+P14635); test: Inhibition of CDK1/CyclinB (unknown origin) at 0.19 uM relative to control; type: protein-complex assay
[9] = molecular target: Inhibitor of nuclear factor kappa-B kinase subunit epsilon (Homo sapiens) (UniProt Q14164); test: Inhibition of IKBKE (unknown origin) at 0.19 uM relative to control
Chain of Inhibitor of nuclear factor kappa-B kinase subunit epsilon (Homo sapiens) (Q14164 whole entry): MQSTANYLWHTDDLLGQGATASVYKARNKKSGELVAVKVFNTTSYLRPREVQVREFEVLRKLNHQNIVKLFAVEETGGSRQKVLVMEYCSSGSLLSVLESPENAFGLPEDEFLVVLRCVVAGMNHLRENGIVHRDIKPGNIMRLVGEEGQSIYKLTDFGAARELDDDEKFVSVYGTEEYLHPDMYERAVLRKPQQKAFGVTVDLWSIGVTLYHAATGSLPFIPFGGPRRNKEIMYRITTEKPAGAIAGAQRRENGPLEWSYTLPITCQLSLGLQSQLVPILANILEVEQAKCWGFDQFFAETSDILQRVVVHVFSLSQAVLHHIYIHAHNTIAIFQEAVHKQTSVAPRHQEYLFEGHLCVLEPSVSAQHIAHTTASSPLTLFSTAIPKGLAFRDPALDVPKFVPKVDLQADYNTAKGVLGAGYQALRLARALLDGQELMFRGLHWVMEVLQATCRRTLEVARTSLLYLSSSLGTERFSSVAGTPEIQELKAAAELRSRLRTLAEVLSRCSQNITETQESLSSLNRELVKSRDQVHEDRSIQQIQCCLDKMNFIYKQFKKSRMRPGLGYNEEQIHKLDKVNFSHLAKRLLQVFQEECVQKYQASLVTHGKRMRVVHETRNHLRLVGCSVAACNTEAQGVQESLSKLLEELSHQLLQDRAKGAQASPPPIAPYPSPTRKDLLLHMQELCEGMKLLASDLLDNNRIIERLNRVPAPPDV

[10] = molecular target: Proto-oncogene tyrosine-protein kinase ROS (Homo sapiens) (UniProt P08922); test: Inhibition of ROS (unknown origin) at 0.19 uM relative to control
[11] = molecular target: Serine/threonine-protein kinase MARK2 (Homo sapiens) (UniProt Q7KZI7); test: Inhibition of MARK2 (unknown origin) at 0.164 uM relative to control
Chain of Serine/threonine-protein kinase MARK2 (Homo sapiens) (Q7KZI7 whole entry): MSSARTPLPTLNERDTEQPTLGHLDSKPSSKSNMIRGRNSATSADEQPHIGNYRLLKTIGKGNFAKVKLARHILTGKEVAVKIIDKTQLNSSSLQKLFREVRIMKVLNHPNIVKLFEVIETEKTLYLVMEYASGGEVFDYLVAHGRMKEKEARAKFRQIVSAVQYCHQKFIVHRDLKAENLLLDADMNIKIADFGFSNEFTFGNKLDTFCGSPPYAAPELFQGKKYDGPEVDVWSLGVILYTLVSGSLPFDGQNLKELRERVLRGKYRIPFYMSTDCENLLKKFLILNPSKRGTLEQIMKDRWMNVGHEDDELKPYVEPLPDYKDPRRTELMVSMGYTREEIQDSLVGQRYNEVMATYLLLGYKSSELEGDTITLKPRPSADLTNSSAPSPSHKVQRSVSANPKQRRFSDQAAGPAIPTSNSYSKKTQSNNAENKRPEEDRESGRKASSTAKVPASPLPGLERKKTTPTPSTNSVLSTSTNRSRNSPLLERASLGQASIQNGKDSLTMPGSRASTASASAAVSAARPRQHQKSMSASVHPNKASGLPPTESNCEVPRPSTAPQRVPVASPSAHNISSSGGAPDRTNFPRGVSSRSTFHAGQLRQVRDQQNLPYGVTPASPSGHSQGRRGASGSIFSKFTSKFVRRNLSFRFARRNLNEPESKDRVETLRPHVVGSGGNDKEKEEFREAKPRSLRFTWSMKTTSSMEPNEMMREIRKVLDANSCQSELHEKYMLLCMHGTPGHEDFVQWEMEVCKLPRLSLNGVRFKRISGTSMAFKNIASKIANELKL

[12] = molecular target: Tyrosine-protein kinase Srms (Homo sapiens) (UniProt Q9H3Y6); test: Inhibition of SRM (SRMS) (unknown origin) at 0.164 uM relative to control
Chain of Tyrosine-protein kinase Srms (Homo sapiens) (Q9H3Y6 whole entry): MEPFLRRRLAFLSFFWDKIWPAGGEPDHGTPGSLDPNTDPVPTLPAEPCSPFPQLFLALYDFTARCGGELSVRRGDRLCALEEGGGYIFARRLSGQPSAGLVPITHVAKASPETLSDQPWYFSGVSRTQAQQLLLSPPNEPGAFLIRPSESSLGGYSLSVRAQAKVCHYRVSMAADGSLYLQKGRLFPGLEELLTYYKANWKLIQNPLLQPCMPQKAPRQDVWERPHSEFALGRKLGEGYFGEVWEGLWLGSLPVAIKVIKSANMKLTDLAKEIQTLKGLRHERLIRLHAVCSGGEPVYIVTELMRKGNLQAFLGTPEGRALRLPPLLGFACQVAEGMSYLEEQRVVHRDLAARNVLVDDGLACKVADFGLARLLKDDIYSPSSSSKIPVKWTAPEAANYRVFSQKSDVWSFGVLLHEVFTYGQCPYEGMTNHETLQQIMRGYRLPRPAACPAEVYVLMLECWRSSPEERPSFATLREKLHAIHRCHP

[13] = molecular target: Protein kinase C zeta type (Homo sapiens) (UniProt Q05513); test: Inhibition of PKC-zeta (unknown origin) at 0.164 uM relative to control
Chain of Protein kinase C zeta type (Homo sapiens) (Q05513 whole entry): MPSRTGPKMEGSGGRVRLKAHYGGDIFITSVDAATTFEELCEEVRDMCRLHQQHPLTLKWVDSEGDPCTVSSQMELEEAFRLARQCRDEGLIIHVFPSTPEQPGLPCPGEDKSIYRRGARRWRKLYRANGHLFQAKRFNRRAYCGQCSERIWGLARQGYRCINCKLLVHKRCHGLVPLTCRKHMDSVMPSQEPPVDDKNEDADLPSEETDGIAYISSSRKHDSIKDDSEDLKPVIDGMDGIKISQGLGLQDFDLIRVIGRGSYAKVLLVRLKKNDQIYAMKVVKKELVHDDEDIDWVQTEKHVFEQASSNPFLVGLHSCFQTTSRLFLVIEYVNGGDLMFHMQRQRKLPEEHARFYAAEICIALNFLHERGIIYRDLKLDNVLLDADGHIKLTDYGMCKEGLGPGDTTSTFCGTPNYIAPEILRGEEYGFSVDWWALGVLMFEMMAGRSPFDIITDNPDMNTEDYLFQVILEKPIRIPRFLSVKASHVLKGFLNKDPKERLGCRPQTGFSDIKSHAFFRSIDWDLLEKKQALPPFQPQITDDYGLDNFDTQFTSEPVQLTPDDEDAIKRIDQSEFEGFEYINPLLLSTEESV

[14] = molecular target: Insulin-like growth factor 1 receptor (Homo sapiens) (UniProt P08069); test: Inhibition of IGF1R (unknown origin) at 0.164 uM relative to control
[15] = molecular target: Homeodomain-interacting protein kinase 1 (Homo sapiens) (UniProt Q86Z02); test: Inhibition of HIPK1 (unknown origin) at 0.164 uM relative to control
[16] = molecular target: T1, cGMP-dependent protein kinase 1 (Homo sapiens); test: Inhibition of PKG-alpha (unknown origin) at 0.45 uM relative to control

- inhibition [1]: 0.7%
- inhibition [2]: -7.3%
- inhibition [3]: 2.3%
- inhibition [4]: -3.3%
- inhibition [5]: 15.7%
- inhibition [6]: -1.7%
- inhibition [7]: 7%
- inhibition [8]: -2%
- inhibition [9]: 1%
- inhibition [10]: -1.7%
Compound: Cc1[nH]nc(C2CC2)c1-c1ccc2c(-c3ccc(N4CCN(C)CC4)nc3)n[nH]c2c1

- inhibition [11]: -4.7%
- inhibition [12]: 3.3%
- inhibition [13]: 11.7%
- inhibition [14]: 5.7%
- inhibition [15]: 0%
Compound: COC(=O)Nc1cc(-c2c(C3CC3)n[nH]c2C)cc2[nH]ncc12

- inhibition [16]: -1.7%
Compound: Cc1n[nH]c(C)c1-c1ccc2c(NC(=O)c3ccc(N4CCN(C)CC4)cc3)n[nH]c2c1
